# Read-outs that look alike come from different tables or passages of the source. Non-standard residues stand in square brackets, D forms with d. Residues, ends and D or L forms follow the SMILES beside them. No end group written: not given here.
# Assays:
# ET receptor = conditions: allergic sheep; cited from earlier work
# ETA = conditions: endotoxic shock, mouse; cited from earlier work
# isolated rat hearts = conditions: cited from earlier work; for preischemic increase in coronary perfusion pressure induced by big ET-1 and its preischemic effect: phosphoramidon (IC50 =100 μM), BQ-123 0.3 μM; for time to contracture in globally ischemic rat hearts: 30 pMol ET-1 or 10 nMol big ET-1 pretreatment; for IC50: isolated rat hearts, read-out: IC50, reduction of coronary flow
# vascular strips = conditions: cited from earlier work
# [1] = in vivo; cited from earlier work
# human ECE-1 = biological target: T1, human ECE-1 (Homo sapiens, UniProt P42892); experiment: ECE-1 Assay (ET-1 formed from big ET-1, by Elisa); format: biochemical; conditions: solubilized membrane fraction of CHO/human ECE-1 cells, 0.1 μM big ET-1, pH 7.0, 1 hour at 37° C.
# T1 construct: expressed in transfected cells
# T1 sequence (P42892 1-770): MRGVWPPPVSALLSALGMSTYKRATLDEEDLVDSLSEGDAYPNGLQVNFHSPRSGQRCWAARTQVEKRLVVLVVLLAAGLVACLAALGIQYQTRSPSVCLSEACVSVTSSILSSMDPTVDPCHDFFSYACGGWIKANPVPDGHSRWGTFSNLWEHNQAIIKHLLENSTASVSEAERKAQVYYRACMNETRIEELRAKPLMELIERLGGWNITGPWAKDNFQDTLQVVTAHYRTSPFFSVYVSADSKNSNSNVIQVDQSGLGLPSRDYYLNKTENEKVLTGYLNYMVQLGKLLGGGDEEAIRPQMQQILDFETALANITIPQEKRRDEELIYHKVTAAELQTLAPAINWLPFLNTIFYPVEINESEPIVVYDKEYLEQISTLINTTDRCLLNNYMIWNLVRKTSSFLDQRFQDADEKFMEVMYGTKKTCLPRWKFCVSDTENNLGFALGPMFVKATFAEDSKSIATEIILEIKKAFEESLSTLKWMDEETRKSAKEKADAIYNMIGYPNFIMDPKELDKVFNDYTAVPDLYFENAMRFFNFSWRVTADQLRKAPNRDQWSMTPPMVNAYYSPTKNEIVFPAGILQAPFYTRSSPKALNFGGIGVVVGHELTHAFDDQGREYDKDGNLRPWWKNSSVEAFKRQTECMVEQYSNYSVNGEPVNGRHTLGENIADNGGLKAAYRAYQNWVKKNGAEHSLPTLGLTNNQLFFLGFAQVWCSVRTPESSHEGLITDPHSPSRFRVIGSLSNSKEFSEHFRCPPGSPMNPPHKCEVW
# Description: All cells were grown in a humidified incubator at 37° C. in an atmosphere of 5% CO2/95% air. The membrane fractions from CHO cells were prepared as described in (Cell 1994; (78):473-485). ECE-1 Assay […] The final concentration of DMSO was 1.5%. […] This final mixture was then directly analyzed for the amount of ET-1 by enzyme-linked immunosorbant assay (Elisa).
# gastric mucosa = conditions: 50 to 500 pmol/kg into the left gastric artery; cited from earlier work
# endothelin = conditions: rats; cited from earlier work
# ECE = ECE in vitro, cited from earlier work
# [2] = test system: pressor response of big ET; conditions: cited from earlier work
# [3] = test system: vasoconstrictor effects evoked by big ET-1; conditions: anaesthetized pigs; cited from earlier work
# [4] = test system: pressor response of big ET-1; conditions: ganglion-blocked anesthetized rats; cited from earlier work
# [5] = test system: effects of big ET-1 in the microvasculature; conditions: anesthetized hamsters; cited from earlier work
# [6] = test system: lethality induced by big ET-1; conditions: in vivo; cited from earlier work
# [7] = test system: effects of intracisternal big ET-1; conditions: anesthetized dogs; cited from earlier work
# [8] = test system: hemodynamic actions of big ET-1; conditions: rat brain; cited from earlier work
# [9] = test system: pulmonary vascular resistance; conditions: young piglets; cited from earlier work
# infarct size = conditions: IV, 24 hour postischemia; cited from earlier work
# SHR = conditions: IV infusion; cited from earlier work
compound,measurement,setting,value
CC(C)C[C@@H]1NC(=O)[C@@H](C(C)C)NC(=O)[C@@H]2CCCN2C(=O)[C@@H](CC(=O)O)NC(=O)[C@@H](Cc2c[nH]c3ccccc23)NC1=O [BQ-123] (cyclo(L[dW][dD]P[dV])),ET-1-induced bronchoconstriction and tracheal smooth muscle contraction,ET receptor,block ET-1-induced bronchoconstriction and tracheal smooth muscle contraction in allergic sheep
same,survival rate,ETA,significantly increased the survival rate in this model
same,preischemic increase in coronary perfusion pressure induced by big ET-1 and its preischemic effect,isolated rat hearts,abolished the preischemic increase in coronary perfusion pressure induced by big ET-1 as well as its preischemic effect
"Big ET: 38 (human) or 39 (porcine) amino acid peptide known as big endothelin or proendothelin (CSCSSLMDKECVYFCHLDIIWVNTPEHVVPYGLGSPRS; ends and bridges not checked; cysteine pairing not given here; UniProt P05305 53-90, looked up)",potency relative to ET-1 in inducing contractile activity,vascular strips,1%
same,potency relative to ET-1 at raising blood pressure,[1],equally potent in vivo at raising blood pressure
same,time to contracture in globally ischemic rat hearts,isolated rat hearts,significantly reduced the time to contracture
same,IC50,isolated rat hearts,2 nM
"CCCCCCCc1nc(-c2nc(C(=O)O)cc(OC)c2OC)cs1 [Example 3, 6-(2-Heptyl-thiazol-4-yl)-4,5-dimethoxy-pyridine-2-carboxylic acid]",IC50,human ECE-1,1300 nM
"COc1cc(C(=O)O)nc(-c2cscn2)c1OC [Example 6, 6-(Thiazol-4-yl)-4,5-dimethoxy-pyridine-2-carboxylic acid]",IC50,human ECE-1,5000 to 10000 nM
"ET-1: a potent vasoconstrictor, is a 21 amino acid bicyclic peptide",gastric mucosal hemorrhagic change,gastric mucosa,induced gastric mucosal hemorrhagic change in a dose-dependent manner
same,tissue type plasminogen activator release and platelet activating formation,gastric mucosa,increased the tissue type plasminogen activator release and platelet activating formation
same,time to contracture in globally ischemic rat hearts,isolated rat hearts,significantly reduced the time to contracture
same,IC50,isolated rat hearts,0.012 nM
"COc1cc(C(=O)O)nc(-c2csc(C)n2)c1OC [Example 2, 6-(2-Methyl-thiazol-4-yl)-4,5-dimethoxy-pyridine-2-carboxylic acid]",IC50,human ECE-1,1900 nM
"CNc1nc(-c2nc(C(=O)O)cc(OC)c2OC)cs1 [Example 5, 6-(2-N-Methylamino-thiazol-4-yl)-4,5-dimethoxy-pyridine-2-carboxylic acid]",IC50,human ECE-1,1000 to 5000 nM
COc1cccc(Oc2c(NS(=O)(=O)c3ccc(C(C)(C)C)cc3)ncnc2OCCO)c1 [RO 46-2005],efficacy in acute renal ischemia and subarachnoid hemorrhage,endothelin,effective in models of acute renal ischemia and subarachnoid hemorrhage in rats
CC(C)C[C@H](NP(=O)(O)O[C@@H]1O[C@@H](C)[C@H](O)[C@@H](O)[C@H]1O)C(=O)N[C@@H](Cc1c[nH]c2ccccc12)C(=O)O [phosphoramidon],IC50,ECE,~1000 nM
same,IC50,ECE; listed as Phosphoramidon,1000 nM
same,inhibition of effects of ET-1 (versus big ET-1),[2]; in all cases (studies cited in b8),inhibited the effects of big ET-1 and not ET-1
same,block of the pressor response of big ET,"[2]; micromolar concentrations, in vitro and in vivo",block the pressor response of big ET both in vitro and in vivo
same,plasma ET-1 level,[3],did not have any effect on the plasma ET-1 level
same,vasoconstrictor effects evoked by intravenous injections of big ET-1,[3],inhibit vasoconstrictor effects evoked by intravenous injections of big ET-1
same,pressor response of big ET-1,[4],blocked by phosphoramidon in a dose-dependent manner
same,effects of big ET-1 in the microvasculature,[5],inhibit the effects of big ET-1 in the microvasculature of anesthetized hamsters
same,lethality induced by intravenous infusion of big ET-1,[6],suppress the lethality induced by the intravenous infusion of big ET-1
same,decreased basilar artery caliber and elevated systemic arterial pressure by intracisternal big ET-1,[7],These effects were blocked by phosphoramidon
same,inhibition of hemodynamic actions of big ET-1,[8],phosphoramidon sensitive inhibition of hemodynamic actions of big ET-1 in rat brain
same,elevated pulmonary vascular resistance after cardiopulmonary bypass,[9],reduce elevated pulmonary vascular resistance after cardiopulmonary bypass
same,preischemic increase in coronary perfusion pressure induced by big ET-1 and its preischemic effect,isolated rat hearts,abolished the preischemic increase in coronary perfusion pressure induced by big ET-1 as well as its preischemic effect
same,infarct size,infarct size,significantly reduce infarct size 24 hour postischemia
O=P(O)(O)CNC(Cc1ccc(-c2ccccc2)cc1)c1nn[nH]n1 (stereo not drawn) [CGS 26303],antihypertensive responses in the SHR,SHR,effective at lowering the antihypertensive responses in the SHR
"COc1cc(C(=O)O)nc(-c2csc(N)n2)c1OC [Example 4, 6-(2-Amino-thiazol-4-yl)-4,5-dimethoxy-pyridine-2-carboxylic acid]",IC50,human ECE-1,1000 to 5000 nM
"COc1cc(C(=O)O)nc(-c2csc(CCCCCC(C)O)n2)c1OC (stereo not drawn) [Example 1, 6-[2-(6-Hydroxy-heptyl)-thiazol-4-yl]-4,5-dimethoxy-pyridine-2-carboxylic acid]",IC50,human ECE-1,1300 nM

# Source: US5891892A, “Small molecule biaryl compounds as inhibitors of endothelin converting enzyme” (Warner-Lambert Company, priority 1997, dated 1999)
